Results from ChEMBL document CHEMBL1157539, “Thousands of chemical starting points for antimalarial lead identification” (Nature, 2010).

tested on: Plasmodium falciparum; experiment: GSK_TCMDC: Inhibition of Plasmodium falciparum 3D7 in whole erythrocytes, using parasite LDH activity as an index of growth.; type: functional, organism-based; details: Plasmodium falciparum, 3D7

Compared with `CCc1cc2c3c(N)nc(N)nc3ccc2n1CC`, `Nc1nc(N)c2c(ccc3c2ccn3Cc2ccc3c(c2)OCO3)n1` is 3.2-fold lower in XC50: 10.3 nM for the first, 3.2 nM for the second.

`NCc1ccc(CNCc2ccc(-c3ccc(-c4nc5cc(F)ccc5[nH]4)cc3)cc2)cc1` and `Cc1cccc2nc(-c3ccc(-c4ccc(CNCC(C)C)cc4)cc3)[nH]c12` are within 1.5-fold of each other in XC50: 402 nM for the first, 405 nM for the second.

`COc1ccc2nccc([C@@H](O)CN3CCC(NCc4ccc5c(c4)NC(=O)CS5)CC3)c2n1` and `COc1ccc2nccc(N3CCC(CCNCc4ccc5c(n4)NC(=O)CO5)CC3)c2n1` are within 1.5-fold of each other in XC50: 747 nM for the first, 998 nM for the second.

`Cc1ccc2c(=NN=Cc3ccc(Cl)cc3)cc(C)[nH]c2c1` and `Fc1ccc2[nH]ccc(=NN=CC=Cc3ccccc3)c2c1` are within 1.5-fold of each other in XC50: 945 nM for the first, 681 nM for the second.

`N#Cc1cncc(-c2nc3c(N4CCC(Cc5ccccc5)CC4)cccc3n2CCNCc2ccccc2)c1` and `N#Cc1ccc(-c2nc3c(N4CCCC4)cccc3n2CCNCc2ccccc2)cc1` are within 1.5-fold of each other in XC50: 573 nM for the first, 593 nM for the second.

`COc1ccc(CNCCCCCCNCc2ccc(OC)c3ccccc23)c2ccccc12` and `FC(F)(F)COc1ccc(CCNCCCCNCCc2ccc(OCC(F)(F)F)c3ccccc23)c2ccccc12` are within 1.5-fold of each other in XC50: 581 nM for the first, 648 nM for the second.

Compared with `O=C(Nc1ccc(CC(=O)N2CCc3cc(Cl)c(N4CCN(C/C=C/c5ccccc5)CC4)cc32)cc1)Nc1cccc([N+](=O)[O-])c1`, `Cc1cccc(-c2ccc(NC(=O)Nc3ccc4nccc(N5CCN(C)CC5)c4c3)cc2C)n1` is 3.6-fold lower in XC50: 761 nM for the first, 212 nM for the second.

`O=C(O)C[C@H](NC(=O)CCCNC(=O)c1cccc(-c2ccc(Cl)c(Cl)c2)c1)C(=O)O` and `O=C(CCCCCNC(=O)c1ccc(O)c(-c2ccc(Cl)c(Cl)c2)c1)NCCN1CCCC1` are within 1.5-fold of each other in XC50: 881 nM for the first, 980 nM for the second.

`CN(Cc1cccc(C#N)c1)C1CCN(c2cc(NC(=O)c3ccc(F)cc3)ccn2)CC1` and `N#Cc1ccc(C(=O)Nc2ccc(-c3cccc(CN4CCCC4)c3)cc2)cc1` are within 1.5-fold of each other in XC50: 1070 nM for the first, 1000 nM for the second.

`COc1ccc(NC(=O)[C@H](CC(C)C)Nc2cc(C)nc(Nc3ccccc3)n2)cc1` and `Cc1cc(N[C@@H](CC(C)C)C(=O)NCCOc2ccccc2)nc(Nc2ccccc2)n1` are within 1.5-fold of each other in XC50: 866 nM for the first, 1110 nM for the second.

`COc1cccc(C(O)CNc2ccnc(Nc3ccc(Cl)cc3)n2)c1` (centres undefined) and `O=C(Nc1ccccc1F)NC1CCN(c2ccnc(Nc3ccc(F)cc3)n2)CC1` are within 1.5-fold of each other in XC50: 606 nM for the first, 754 nM for the second.

Going from `CCCCCCCc1cc(=O)c2ccccc2[nH]1` to `Cc1c(CNCCCNc2cc(=O)c3ccccc3[nH]2)sc(C(F)F)c1Br`, the XC50 rises from 317 nM to 867 nM (2.7-fold).

`COc1ccc(CN(C)CC(O)COc2ccc(NC(=O)c3cccc4c(=O)c5cccc(OC)c5[nH]c34)cc2)cc1OC` (centres undefined) and `COc1cc(C(=O)Nc2cccc(-c3nc4ccccc4[nH]3)c2)ccc1OC(C)=O` are within 1.5-fold of each other in XC50: 780 nM for the first, 762 nM for the second.

`COc1ccc(-c2csc(NC(=O)CCC(=O)O)n2)cc1OC` and `COc1cccc(C(=O)Nc2nonc2-c2ccc(OC)c(OC)c2)c1` are within 1.5-fold of each other in XC50: 842 nM for the first, 801 nM for the second.

Compared with `CN(c1ccc(F)cc1)S(=O)(=O)c1ccc(Cl)c(C(=O)Nc2cccc(C#N)c2)c1`, `O=C(Nc1nc2cc(S(=O)(=O)NCCc3cccc(F)c3)ccc2n1CCCn1ccnc1)c1ccc(Cl)cc1` is 1.8-fold higher in XC50: 699 nM for the first, 1270 nM for the second.

`O=C(/C=C/c1ccc(Cl)c(Cl)c1)NCCCCCN1CCC(NC(=O)Nc2ccc(F)cc2F)CC1` and `O=C(/C=C/c1ccc(Cl)c(Cl)c1)NCCCCCN1CCC(NC(=S)Nc2ccc(Cl)cc2Cl)CC1` are within 1.5-fold of each other in XC50: 739 nM for the first, 738 nM for the second.

First: Cc1ccc(Oc2cnn(C)c(=O)c2Nc2cccc(C(=O)NCCc3ccccn3)c2)c(C)c1
Second: Cc1cccc2nc(-c3ccc(-c4ccc(C(=O)NCCc5cn(C)cn5)cc4)s3)[nH]c12
The XC50 of the first is 1.9-fold lower: 494 nM for the first, 960 nM for the second.

Going from `Cc1ccc2c(C3=CCN(CCCCC4(C)C(=O)Nc5c(F)cccc54)CC3)c(C)[nH]c2c1` (centres undefined) to `Cc1cccc2nc(-c3ccc(-c4ccc(CNCCCN5CCCC5=O)cc4)s3)[nH]c12`, the XC50 rises from 265 nM to 749 nM (2.8-fold).

First: O=C(Nc1ccc(OC2CCN(Cc3ccc(F)cc3)C2)cc1)c1cccs1 (centres undefined)
Second: O=C(Nc1ccc(OC2CCN(Cc3ccc(F)cc3)C2)cc1)c1ccco1 (centres undefined)
The XC50 of the first is 1.6-fold lower: 642 nM for the first, 1040 nM for the second.

`Cc1cc(C)cc(Oc2c(C(F)(F)F)oc3c(CN4CC(C)OC(C)C4)c(O)ccc3c2=O)c1` (centres undefined) and `COc1cc(Nc2ccnc3ccc(C(F)(F)F)cc23)cc(OC)c1OC` are within 1.5-fold of each other in XC50: 939 nM for the first, 698 nM for the second.

Going from `Nc1nccc2ccc(-c3ccsc3)cc12` to `CS(=O)(=O)Nc1ccc(-c2ccc3ccnc(N)c3c2)cc1`, the XC50 rises from 332 nM to 614 nM (1.8-fold).

Compared with `Cc1ccc(OCCCON2C(=N)N=C(N)NC2(C)C)cc1C`, `COc1cc(Cc2cnc(N)nc2N)ccc1OCC(=O)Nc1ccc(C)cc1` is 150-fold higher in XC50: 3.2 nM for the first, 478 nM for the second.

First: O=S(=O)(c1ccc(OC(F)(F)F)cc1)C1CC2CCC(C1)N2S(=O)(=O)c1ccc(Cl)c(C(F)(F)F)c1 (centres undefined)
Second: Cc1ccccc1C1CCN(C2CCC(NC(=O)c3ccc(-c4cc(C(F)(F)F)nn4C)s3)CC2)CC1 (centres undefined)
The XC50 of the first is 1.5-fold lower: 560 nM for the first, 846 nM for the second.

Compared with `CC(C)Nc1nc(NC2CCCCC2)nc(N2CCCCCCC2)n1`, `Oc1ccc2[nH]c(-c3cccs3)nc2c1CN1CCC(N2CCCC2)CC1` is 1.7-fold lower in XC50: 1090 nM for the first, 642 nM for the second.

`Cc1cc(NCCC(=O)NCc2cccc(F)c2)nc(Nc2ccccc2)n1` and `Cc1cc(N[C@@H](Cc2ccccc2)C(=O)NCCc2ccccc2)nc(NCc2ccccc2C)n1` are within 1.5-fold of each other in XC50: 1050 nM for the first, 879 nM for the second.

Going from `CC1(CCc2ccccc2)N=C(N)N=C(N)C1c1ccc(Cl)c(Cl)c1` (centres undefined) to `CCc1nn2c(Nc3ccncc3)cc(C)nc2c1-c1ccccc1`, the XC50 falls from 316 nM to 203 nM (1.6-fold).

`CN(C)CCN(C)Cc1cccc(-c2ccc3c(Nc4cc(O)c(Cl)cc4F)ccnc3c2)c1` and `CN(C)CCN(C)Cc1ccc(-c2ccc3c(Nc4ccc(Oc5ccccc5)cc4)ccnc3c2)o1` are within 1.5-fold of each other in XC50: 237 nM for the first, 179 nM for the second.

Going from `Cc1noc(C)c1-c1cccc(CNCc2cccc(-c3ccc(-c4nc5cccc(C)c5[nH]4)cc3)c2)c1` to `Cc1cccc2nc(-c3cccc(-c4ccc(C(=O)NCc5ccccc5S(C)(=O)=O)cc4)c3)[nH]c12`, the XC50 rises from 191 nM to 750 nM (3.9-fold).

Going from `CCCc1cc(C(=O)N[C@@H](Cc2ccccc2)[C@H](O)CNC(C)(C)c2cccc(OC)c2)c(F)c(N2CCCC2=O)c1` to `COc1ccc2nccc([C@@H](O)CN3CCC(NC(=O)CCC(=O)c4cc(C(C)(C)C)ccc4OC)CC3)c2c1`, the XC50 rises from 95.7 nM to 846 nM (8.8-fold).

`O=C(Nc1cc(C(F)(F)F)cc(C(F)(F)F)c1)Nc1cc(C(F)(F)F)cc(C(F)(F)F)c1` and `N#Cc1cccc(-c2nc(NCc3cccc(C(F)(F)F)c3)nn2-c2cccc(C(F)(F)F)c2)c1` are within 1.5-fold of each other in XC50: 727 nM for the first, 592 nM for the second.

`COc1ccc(Nc2nc(NC3CCN(C)CC3)cc(-c3ccc(OC)cc3)n2)cc1` and `O=C(NCCN1CCCCC1)c1ccc(Nc2nccc(Nc3ccc(Oc4ccccc4)cc3)n2)cc1` are within 1.5-fold of each other in XC50: 545 nM for the first, 553 nM for the second.

First: CCOC(=O)CNC(=O)c1cc(=O)c2ccccc2o1
Second: Cc1noc(-c2cccs2)c1C(=O)NCCc1cccc(Cl)c1
The XC50 of the first is 2.2-fold lower: 210 nM for the first, 463 nM for the second.

`Cc1c(OC(C)C)nc2ccccc2c1C(=O)N[C@H](c1cccc(F)c1)C1CC1` and `O=C(NC1CCN(c2ccnc3ccccc23)C1)c1cccc(C(F)(F)F)c1` (centres undefined) are within 1.5-fold of each other in XC50: 1090 nM for the first, 897 nM for the second.

First: CC(=O)Nc1ccc(CN2CCC(NC(=O)c3ccc(-c4cccc(C(F)(F)F)c4)s3)CC2)cc1
Second: Cc1ccc(NC(=O)Nc2ccc(Cl)c(C(F)(F)F)c2)cc1-c1ccc(C(=O)Nc2ccncc2)cc1
The XC50 of the first is 3.4-fold higher: 890 nM for the first, 264 nM for the second.

Going from `CN1CCN(c2ccc(Nc3ncc([N+](=O)[O-])c(Nc4ccccc4O)n3)cc2)CC1` to `OCCN1CCN(c2ccc(Nc3ccnc4cc5ccccc5cc34)cc2)CC1`, the XC50 falls from 723 nM to 41 nM (18-fold).

Going from `Cc1cccc2nc(-c3ccc(-c4ccc(CN5CCN(CCN6CCOCC6)CC5)cc4)s3)[nH]c12` to `OCCN1CCN(Cc2ccc(-c3cccc(-c4nc5ccccc5[nH]4)c3)cc2)CC1`, the XC50 rises from 245 nM to 749 nM (3.1-fold).

Going from `CCc1ccc(-c2cnc(N)c3cc(-c4ccnc(N)n4)ccc23)cc1` to `COc1ccc2c(ccc3c2ncc2c(=O)n(-c4ccccc4)[nH]c23)c1`, the XC50 falls from 1350 nM to 520 nM (2.6-fold).

Going from `O=C(Nc1ccccc1)N(Cc1ccccc1-c1cccc(CNC2CCCC2)c1)C1CCN(Cc2ccccc2)CC1` to `CC1CCN(Cc2cccc(C(=O)NCc3ccc(F)c(-c4cccc(CN5CCN[C@@H](C)C5)c4)c3)c2)CC1`, the XC50 rises from 168 nM to 1460 nM (8.7-fold).

`CC[C@H]1CN2CC[C@@H]1C[C@H]2[C@H](O)c1cc(N2CCC(c3ccccc3)CC2)nc2ccc(OC)cc12` and `CCn1c(CN2CCN(Cc3ccccc3)CC2)nc2cc(NC(=O)c3cccs3)ccc21` are within 1.5-fold of each other in XC50: 346 nM for the first, 402 nM for the second.

Going from `Cc1ccccc1NC(=S)NC1CCN(CCCCCNC(=O)/C=C/c2ccc(Cl)c(Cl)c2)CC1` to `CC(=O)C1(c2ccccc2)CCN(CCC2(c3ccc(Cl)c(Cl)c3)CN(C(=O)Nc3cc(F)cc(F)c3)CCO2)CC1` (centres undefined), the XC50 rises from 795 nM to 1480 nM (1.9-fold).

First: Cc1cccc(-c2nc3[nH]c(=O)cc(NC(=O)C(C)C)n3n2)c1
Second: CC(C)NC(=O)c1cccc(-c2ccc(OCCN3CCCC3c3cc4ccccc4[nH]3)cc2)c1 (centres undefined)
The XC50 of the first is 2.3-fold lower: 421 nM for the first, 958 nM for the second.

`CCCc1cc(Cc2cnc(N)nc2N)cc(CC)c1O` and `CN(C)CCC1CCN(CCS(=O)(=O)c2cccc(Nc3ccc(-c4cccc(F)c4)cn3)c2)CC1` are within 1.5-fold of each other in XC50: 1320 nM for the first, 1070 nM for the second.

`CCC1CN(CCCn2c3ccccc3c3ccccc32)C(CC)CN1` (centres undefined) and `N/C(=N\c1cccc(Cc2ccccc2)n1)NCc1ccccc1` are within 1.5-fold of each other in XC50: 1080 nM for the first, 863 nM for the second.

`Cc1nnc(Sc2ncnc3scc(-c4ccc(F)cc4)c23)s1` and `Fc1ccc(N(c2nc(-c3cc(F)cc(C(F)(F)F)c3)cs2)C2CCNCC2)cc1` are within 1.5-fold of each other in XC50: 811 nM for the first, 956 nM for the second.

`N#Cc1ccc(C2CCN(CC[C@H](N)Cc3ccc(Cl)s3)CC2)cc1` and `N#Cc1ccc(N2CCN(Cc3ccc(-c4ccc(-c5nc6cc(C(F)(F)F)ccc6[nH]5)cc4)cc3)CC2)nc1` are within 1.5-fold of each other in XC50: 1260 nM for the first, 963 nM for the second.

`c1cc(-c2ccc(CN3CCCC3)cc2)cc(-c2nc3ccccc3[nH]2)c1` and `O=C(c1ccc2ccccc2n1)N1CCCc2cc(Br)ccc21` are within 1.5-fold of each other in XC50: 690 nM for the first, 858 nM for the second.

`O=C(CSc1ccccn1)Nc1c(F)cccc1F` and `O=C(Cn1cnc2c(nnn2Cc2ccccc2F)c1=O)Nc1ccc2c(c1)OCCO2` are within 1.5-fold of each other in XC50: 1210 nM for the first, 949 nM for the second.

`COCCOc1ccc(Nc2nccc(-c3c(-c4cccc(NC(=O)c5c(F)cccc5F)c4)nn4ccccc34)n2)cc1F` and `CC1(C)CCCN(C(=O)c2cccc(-n3nc(-c4ccc(Cl)cc4)cc3N)c2)C1` are within 1.5-fold of each other in XC50: 950 nM for the first, 712 nM for the second.

`O=c1ccc(-c2nc3cc(Cl)c(Cl)cc3n2Cc2ccc(Cl)cc2Cl)c[nH]1` and `Cc1c(S(=O)(=O)Nc2ccc3nccc(N4CCN[C@H](C)C4)c3c2)sc2ccc(Cl)cc12` are within 1.5-fold of each other in XC50: 1110 nM for the first, 842 nM for the second.

With `O=C(CCCC(=O)Nc1ccc(C2=NCCN2)cc1)Nc1ccc(C2=NCCN2)cc1` the XC50 was 106 nM.
